Where a name gives a salt, the structure may show the parent alone.
Biological target: T1, sigma-1 receptor (Cavia porcellus, UniProt Q60492)
T1 construct: Guinea pig brains were homogenized in 10 vols; (w/v) of Tris-HCl 50 mM 0.32 M sucrose, pH 7.4; from tissue; host or cells: guinea pig brain membranes
Test: Sigma-1 receptor binding assay, [3H]-(+)-pentazocine, guinea pig brain membranes
Settings: radioligand [3H]-(+)-pentazocine 5.0 nM, 150 min at 37° C., nonspecific binding with 1 μM haloperidol
Method: Brain membrane preparation and binding assays for the […] were performed as described (DeHaven-Hudkins, D. L., L. C. Fleissner, and F. Y. Ford-Rice, 1992, Characterization of the binding of [^3H](+)pentazocine to α recognition sites in guinea pig brain, Eur. J. Pharmacol. 227, 371-378) with some modifications. Guinea pig brains were homogenized in 10 vols. (w/v) of Tris-HCl 50 mM 0.32 M sucrose, pH 7.4, with a Kinematica Polytron PT 3000 at 15000 r.p.m. for 30 s. The homogenate was centrifuged at 1000 g for 10 min at 4° C. and the supernatants collected and centrifuged again at 48000 g for 15 min at 4° C. The pellet was resuspended in 10 volumes of Tris-HCl buffer (50 mM, pH 7.4), incubated at 37° C. for 30 min, and centrifuged at 48000 g for 20 min at 4° C. Following this, the pellet was re-suspended in fresh Tris-HCl buffer (50 mM, pH 7.4) and stored on ice until use.
The radioligand used was [^3H]-(+)-pentazocine at 5.0 nM and the final volume was 200 μl. The incubation was initiated with the addition of 100 μl of membrane at a final tissue concentration of approximately 5 mg tissue net weight/mL and the incubation time was 150 m. at 37° C. After incubation, the membranes were collected onto pretreated glass fiber filterplate (MultiScreen-FC, Millipore), with polyethylenimine 0.1%. The filters were washed two times with 200 μl of washing buffer (50 mM Tris Cl, pH=7.4) and then 25 μl of Ecoscint H liquid scintillation cocktail were added. Microplates were allowed to set for several hours and then quantified by liquid scintillation spectrophotometry (1450 Microbeta, Wallac). Nonspecific binding was determined with 1 μM haloperidol.

T1 sequence (Q60492 whole entry): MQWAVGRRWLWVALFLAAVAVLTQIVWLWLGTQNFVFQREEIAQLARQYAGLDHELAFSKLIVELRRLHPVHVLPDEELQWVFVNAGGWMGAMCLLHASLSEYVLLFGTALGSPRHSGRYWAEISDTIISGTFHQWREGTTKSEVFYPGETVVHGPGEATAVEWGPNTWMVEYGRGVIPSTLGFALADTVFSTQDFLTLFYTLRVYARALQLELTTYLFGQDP

Ki [nM] | SMILES
447 | Cc1cncc(-c2ncnc3c2cnn3CCN2CCCCC2)c1 [Example 18, 4-(5-methylpyridin-3-yl)-1-(2-(piperidin-1-yl)ethyl)-1H-pyrazolo[3,4-d]pyrimidine]
61.7 | CN(CCn1ncc2c(-c3ccc(F)cc3Cl)ncnc21)Cc1ccc(F)cc1 [Example 49, 2-(4-(2-chloro-4-fluorophenyl)-1H-pyrazolo[3,4-d]pyrimidin-1-yl)-N-(4-fluorobenzyl)-N-methylethanamine]
42.6 | Clc1ccc(-c2ncnc3c2cnn3CCN2CCCCC2)cc1 [Example 21, 4-(4-chlorophenyl)-1-(2-(piperidin-1-yl)ethyl)-1H-pyrazolo[3,4-d]pyrimidine]
76.6 | CN(CCn1ncc2c(-c3ccccc3Cl)ncnc21)Cc1ccc(F)cc1 [Example 47, 2-(4-(2-chlorophenyl)-1H-pyrazolo[3,4-d]pyrimidin-1-yl)-N-(4-fluorobenzyl)-N-methylethanamine]
112 | Fc1cc(Cl)ccc1-c1ncnc2c1cnn2CCN1CCCCC1 [Example 46, 4-(4-chloro-2-fluorophenyl)-1-(2-(piperidin-1-yl)ethyl)-1H-pyrazolo[3,4-d]pyrimidine]
125 | FC(F)(F)c1ccccc1-c1ncnc2c1cnn2CCN1CCCCC1 [Example 38, 1-(2-(piperidin-1-yl)ethyl)-4-(2-(trifluoromethyl)phenyl)-1H-pyrazolo[3,4-d]pyrimidine]
48.4 | Cc1cc(F)ccc1-c1ncnc2c1cnn2CCN1CCCCC1 [Example 29, 4-(4-fluoro-2-methylphenyl)-1-(2-(piperidin-1-yl)ethyl)-1H-pyrazolo[3,4-d]pyrimidine]
95.4 | Fc1ccc(-c2ncnc3c2cnn3CCN2CCCCC2)cc1 [Example 14, 4-(4-fluorophenyl)-1-(2-(piperidin-1-yl)ethyl)-1H-pyrazolo[3,4-d]pyrimidine]
318 | Fc1ccc(-c2ncnc3c2cnn3CCN2CCC(F)(F)CC2)c(Cl)c1 [Example 44, 4-(2-chloro-4-fluorophenyl)-1-(2-(4,4-difluoropiperidin-1-yl)ethyl)-1H-pyrazolo[3,4-d]pyrimidine]
300 | CCOc1ccccc1-c1ncnc2c1cnn2CCN1CCCCC1 [Example 13, 4-(2-ethoxyphenyl)-1-(2-(piperidin-1-yl)ethyl)-1H-pyrazolo[3,4-d]pyrimidine hydrochloride]
31.5 | Cn1cccc1-c1ncnc2c1cnn2CCN1CCCCC1 [Example 27, 4-(1-methyl-1H-pyrrol-2-yl)-1-(2-(piperidin-1-yl)ethyl)-1H-pyrazolo[3,4-d]pyrimidine]
57 | Fc1ccc(-c2ncnc3c2cnn3CCN2CCCCC2)c(C(F)(F)F)c1 [Example 34, 4-(4-fluoro-2-(trifluoromethyl)phenyl)-1-(2-(piperidin-1-yl)ethyl)-1H-pyrazolo[3,4-d]pyrimidine]
82.5 | Cc1cccc(-c2ncnc3c2cnn3CCN2CCCCC2)c1 [Example 3, 1-(2-(piperidin-1-yl)ethyl)-4-m-tolyl-1H-pyrazolo[3,4-d]pyrimidine hydrochloride]
475 | c1nc(-c2cnsc2)c2cnn(CCN3CCCCC3)c2n1 [Example 36, 4-(1-(2-(piperidin-1-yl)ethyl)-1H-pyrazolo[3,4-d]pyrimidin-4-yl)isothiazole]
27 | Fc1ccc(-c2ncnc3c2cnn3CCN2CCCCC2)c(Cl)c1 [Example 42, 4-(2-chloro-4-fluorophenyl)-1-(2-(piperidin-1-yl)ethyl)-1H-pyrazolo[3,4-d]pyrimidine]
34.1 | CN(CCn1ncc2c(-c3ccnn3C)ncnc21)Cc1ccc(F)cc1 [Example 48, N-(4-fluorobenzyl)-N-methyl-2-(4-(1-methyl-1H-pyrazol-5-yl)-1H-pyrazolo[3,4-d]pyrimidin-1-yl)ethanamine]
75.7 | Clc1ccccc1-c1ncnc2c1cnn2CCN1CCCCC1 [Example 35, 4-(2-chlorophenyl)-1-(2-(piperidin-1-yl)ethyl)-1H-pyrazolo[3,4-d]pyrimidine]
55.4 | Cc1ccc(C)c(-c2ncnc3c2cnn3CCN2CCCCC2)c1 [Example 26, 4-(2,5-dimethylphenyl)-1-(2-(piperidin-1-yl)ethyl)-1H-pyrazolo[3,4-d]pyrimidine]
81.6 | Fc1ccc(-c2ncnc3c2cnn3CCN2CCCCC2)c(F)c1 [Example 39, 4-(2,4-difluorophenyl)-1-(2-(piperidin-1-yl)ethyl)-1H-pyrazolo[3,4-d]pyrimidine]

SMILES | Ki [nM]
Cn1nc(C(F)(F)F)cc1-c1ncnc2c1cnn2CCN1CCCCC1 [Example 16, 4-(1-methyl-3-(trifluoromethyl)-1H-pyrazol-5-yl)-1-(2-(piperidin-1-yl)ethyl)-1H-pyrazolo[3,4-d]pyrimidine] | 137
c1ccc(-c2ncnc3c2cnn3CCN2CCCCC2)cc1 [Example 1, 4-phenyl-1-(2-(piperidin-1-yl)ethyl)-1H-pyrazolo[3,4-d]pyrimidine] | 99.6
COc1cc(F)ccc1-c1ncnc2c1cnn2CCN1CCCCC1 [Example 28, 4-(4-fluoro-2-methoxyphenyl)-1-(2-(piperidin-1-yl)ethyl)-1H-pyrazolo[3,4-d]pyrimidine] | 39.2
Cc1noc(C)c1-c1ncnc2c1cnn2CCN1CCCCC1 [Example 6, 3,5-dimethyl-4-(1-(2-(piperidin-1-yl)ethyl)-1H-pyrazolo[3,4-d]pyrimidin-4-yl)isoxazole hydrochloride] | 72.4
Clc1ccc(-c2ncnc3c2cnn3CCN2CCCCC2)s1 [Example 20, 4-(5-chlorothiophen-2-yl)-1-(2-(piperidin-1-yl)ethyl)-1H-pyrazolo[3,4-d]pyrimidine] | 35
Cc1ccccc1-c1ncnc2c1cnn2CCN1CCCCC1 [Example 2, 1-(2-(piperidin-1-yl)ethyl)-4-o-tolyl-1H-pyrazolo[3,4-d]pyrimidine] | 73.8
COc1ncccc1-c1ncnc2c1cnn2CCN1CCCCC1 [Example 11, 4-(2-methoxypyridin-3-yl)-1-(2-(piperidin-1-yl)ethyl)-1H-pyrazolo[3,4-d]pyrimidine (L)-tartrate] | 151
COc1ncccc1-c1ncnc2c1cnn2CCN1CCCCC1 [Example 10, 4-(2-methoxypyridin-3-yl)-1-(2-(piperidin-1-yl)ethyl)-1H-pyrazolo[3,4-d]pyrimidine] | 112
Cc1ccc(Cl)c(-c2ncnc3c2cnn3CCN2CCCCC2)c1 [Example 25, 4-(2-chloro-5-methylphenyl)-1-(2-(piperidin-1-yl)ethyl)-1H-pyrazolo[3,4-d]pyrimidine] | 31.2

Reference: patent US9278974B2, “Substituted pyrazolo[3,4-d]pyrimidine compounds, their preparation and use as sigma receptors ligands” (LABORATORIOS DEL DR. ESTEVE S.A., priority 2012, dated 2016)
